Results reported in patent publication US20190255073A1, “ESTERS OF 3-POLYAMINE DERIVATIVES OF BILE ACIDS FOR THE TREATMENT OF INFECTIONS” (VIRBAC, priority 2016, published 2019).
Values after ≈ are worked out from the molar mass of the structure shown.

What was measured:
S. intermedius (1051997) = assay: MIC determination by microplate dilution, S. intermedius animal strain; assay type: cell-based, Staphylococcus intermedius; details: Staphylococcus intermedius, Gram-positive, Mueller-Hinton medium, 24 h, 37° C.
Method: (§1) 1) Preparation of the Preculture
(§2) A negative control (2 mL of sterile culture medium)
(§3) A positive control (1940 μL of culture medium+40 μL of DMSO+20 μL of bacterial suspension) from a thawed biological strain (the biological strains are stored at −80° C. in glycerol).
(§4) The tubes were incubated at 37° C. for 24 hours at 100 rpm.
(§5) The microorganisms were handled under a type L2 laboratory fume cupboard and, before any handling, a UV cycle was programmed and only sterile material was used. […] The chemical compounds to be tested were prepared in a DMSO/methanol mixture (50/50) at a concentration of 5 mg/mL.
(§6) 2) Preparation of the Microplate for the Determination of the Minimum Inhibitory Concentration (MIC)
(§7) After 24 hours of incubation, a measurement of the optical density was taken using a spectrophotometer at 600 nm, collecting 100 μL of the bacterial suspension diluted in 900 μL of the sterile culture medium. This test required the use of a 96-well plate and the required volume of the microbial suspension to be seeded was calculated for an OD corresponding to a value equal to 0.01 in each well. In this plate, the first line corresponded to the negative control (195 μL of sterile culture medium in each well), the second line to the positive control (seeded culture medium supplemented with 2% of DMSO), the third line was loaded twice with bacterial suspension, 8 μL of test product were placed in each well. Thereafter, a 0.5 cascade dilution was performed from this line.
(§8) The first column served as inhibition control. A sterile filter was then placed on the microplate, allowing the passage of gases but not of contaminants. The microplate was incubated at 37° C. under a humid atmosphere for 24 hours.
(§9) NB: The medium used is Mueller-Hinton (MH) medium for bacteria. All the tests were performed in duplicate.
(§10) 4) Reading of the Results
(§11) After incubation, the filter was replaced with a transparent film, and an OD reading was then taken in an iEMS plate spectrophotometer at 620 nm. Calculation of the minimum inhibitory concentration (MIC) was performed.

P. aeruginosa (1051575) [1] = assay: Potentiation of the doxycycline activity at 2 μg/mL; assay type: cell-based, Pseudomonas aeruginosa; details: in combination with doxycycline 2 μg/mL; 24 h, 37°
E. faecalis ATCC29212 = assay: MIC determination by microplate dilution, E. faecalis human strain; assay type: cell-based, Enterococcus faecalis; details: Enterococcus faecalis, ATCC29212, Gram-positive, Mueller-Hinton medium, 24 h, 37° C.
Method: as §1, §2, §3, §4, §5, §6, §7, §8, §9, §10, §11

CHO-K1 cells = assay: WST1 cytotoxicity test on CHO-K1 cells; assay type: cell-based, Chinese hamster; details: Cricetulus griseus, CHO-K1, 24 h, read-out: IC50 (μg/mL) CHO
Method: Test WST1 was used to measure the cytotoxic activity of the products. This is a colorimetric test which makes it possible to measure the viability and the degree of cell proliferation. It is based on cleavage of the colorless tetrazolium salts WST-1 (4-[3-(4-iodophenyl)-2-(4-nitrophenyl)-2H-5-tetrazolio]-1,3-benzene disulfonate) with mitochondrial dehydrogenases to the yellow-colored formazan derivative, which may be quantified by spectrophotometry at 420-480 nm.
The WST1 test was performed on Chinese hamster ovary cells. The CHO-K1 cells (ATCC, USA) are kept in culture on McCoy's 5A medium supplemented with 10% fetal calf serum, 2 mM of L-glutamine and a mixture of penicillin-streptomycin (100 U/ml: 10 μg/mL). The culture is incubated at 37° C. under an atmosphere enriched in CO2 (5%), and subcultured every two days.
The cells are transferred into 96-well plates (25 000 cells/mL) in whole McCoy's 5A medium, and maintained for 24 hours at 37° C. under a humid atmosphere enriched in CO2 (5%). Increasing concentrations of test products are added to the wells in double tests and 8 growth controls containing the cells in the medium alone are included in each series of tests. After 24 hours at 37° C. (5% CO2), the culture medium is removed, the cells are rinsed in phosphate buffer (PBS) and 50 μL of PBS containing 10% of reagent WST1 are added to each well. After 20 minutes of incubation at 37° C., the results are read by spectrophotometry at 450 nm.
The results are expressed in dose-response relationships, modeled by nonlinear regression analysis using the TableCurve software. The 50% inhibitory concentration (IC50) represents the concentration of product that is capable of reducing the cell viability by 50%.

E. coli ATCC28922 = assay: MIC determination by microplate dilution, E. coli human strain; assay type: cell-based, Escherichia coli; details: Escherichia coli, ATCC28922, Gram-negative, Mueller-Hinton medium, 24 h, 37° C.
Method: as §1, §2, §3, §4, §5, §6, §7, §8, §9, §10, §11

S. aureus (340) = assay: MIC determination by microplate dilution, S. aureus animal strain; assay type: cell-based, Staphylococcus aureus; details: Staphylococcus aureus, Gram-positive, Mueller-Hinton medium, 24 h, 37° C.
Method: as §1, §2, §3, §4, §5, §6, §7, §8, §9, §10, §11

P. aeruginosa ATCC27853 = assay: MIC determination by microplate dilution, P. aeruginosa human strain; assay type: cell-based, Pseudomonas aeruginosa; details: Pseudomonas aeruginosa, ATCC27853, Gram-negative, Mueller-Hinton medium, 24 h, 37° C.
Method: as §1, §2, §3, §4, §5, §6, §7, §8, §9, §10, §11

S. aureus ATCC25923 = assay: MIC determination by microplate dilution, S. aureus human strain; assay type: cell-based, Staphylococcus aureus; details: Staphylococcus aureus, ATCC25923, Gram-positive, Mueller-Hinton medium, 24 h, 37° C.
Method: as §1, §2, §3, §4, §5, §6, §7, §8, §9, §10, §11

P. aeruginosa (1051575) [2] = assay: MIC determination by microplate dilution, P. aeruginosa animal strain; assay type: cell-based, Pseudomonas aeruginosa; details: Pseudomonas aeruginosa, Gram-negative, Mueller-Hinton medium, 24 h, 37° C.
Method: as §1, §2, §3, §4, §5, §6, §7, §8, §9, §10, §11

E. coli (1956) = assay: MIC determination by microplate dilution, E. coli animal strain; assay type: cell-based, Escherichia coli; details: Escherichia coli, Gram-negative, Mueller-Hinton medium, 24 h, 37° C.
Method: as §1, §2, §3, §4, §5, §6, §7, §8, §9, §10, §11

| Structure (SMILES) | MIC (S. intermedius (1051997)) | MIC - P. aeruginosa (1051575): content of compound of formula (I) to restore the doxycycline activity (at 2 μg/mL) (P. aeruginosa (1051575) [1]) | MIC (E. faecalis ATCC29212) | IC50 (CHO-K1 cells) | MIC (E. coli ATCC28922) | MIC (S. aureus (340)) | MIC (P. aeruginosa ATCC27853) | MIC (S. aureus ATCC25923) | MIC (P. aeruginosa (1051575) [2]) | MIC (E. coli (1956)) |
| --- | --- | --- | --- | --- | --- | --- | --- | --- | --- | --- |
| COC(=O)CC[C@@H](C)[C@H]1CCC2C3CCC4C[C@@H](NCCCNCCCN)CC[C@]4(C)C3C[C@H](O)[C@@]21C (stereo partly drawn) [(4), methyl 3β-norspermidinodeoxycholate] | 1 µg/mL (≈ 1.92 µM) | 3 µg/mL | 3 µg/mL (≈ 5.77 µM) | 20 µg/mL (≈ 38.5 µM) | 3 µg/mL (≈ 5.77 µM) | 3 µg/mL (≈ 5.77 µM) | 3 µg/mL (≈ 5.77 µM) | 2 µg/mL (≈ 3.85 µM) | 3 µg/mL (≈ 5.77 µM) |  |
| CC(C)OC(=O)CC[C@@H](C)[C@H]1CCC2C3C(C[C@H](O)[C@@]21C)[C@@]1(C)CC[C@H](NCCCNCCCN)CC1C[C@H]3O (stereo partly drawn) [(7), isopropyl 3β-norspermidinocholate] | 28 µg/mL (≈ 49.7 µM) | 4 µg/mL | 28 µg/mL (≈ 49.7 µM) | 110 µg/mL (≈ 195 µM) | 28 µg/mL (≈ 49.7 µM) |  | 30 µg/mL (≈ 53.2 µM) | 28 µg/mL (≈ 49.7 µM) | 30 µg/mL (≈ 53.2 µM) | > 50 µg/mL |
| COC(=O)CC[C@@H](C)[C@H]1CCC2C3C(CC[C@@]21C)[C@@]1(C)CC[C@H](NCCCNCCCN)CC1C[C@H]3O (stereo partly drawn) [(9), methyl 3β-norspermidinochenodeoxycholate] | 7 µg/mL (≈ 13.5 µM) | 3 µg/mL | 26 µg/mL (≈ 50 µM) | 70 µg/mL (≈ 135 µM) | 26 µg/mL (≈ 50 µM) | 7 µg/mL (≈ 13.5 µM) | 26 µg/mL (≈ 50 µM) | 13 µg/mL (≈ 25 µM) | 26 µg/mL (≈ 50 µM) | 26 µg/mL (≈ 50 µM) |
| COC(=O)CC[C@@H](C)[C@H]1CCC2C3C(CC[C@@]21C)[C@@]1(C)CC[C@H](NCCCNCCCN)CC1C[C@@H]3O (stereo partly drawn) [(13), methyl 3β-norspermidinoursodeoxycholate] | 7 µg/mL (≈ 13.5 µM) | 7 µg/mL | 28 µg/mL (≈ 53.9 µM) | 70 µg/mL (≈ 135 µM) | 55 µg/mL (≈ 106 µM) | 14 µg/mL (≈ 26.9 µM) | 28 µg/mL (≈ 53.9 µM) | 27 µg/mL (≈ 51.9 µM) | 55 µg/mL (≈ 106 µM) | 55 µg/mL (≈ 106 µM) |
| COC(=O)CC[C@@H](C)[C@H]1CCC2C3CCC4C[C@@H](NCCNCCNCCNCCNCCN)CC[C@]4(C)C3C[C@H](O)[C@@]21C (stereo partly drawn) [(20), methyl 3β-(pentaethylenehexamine)deoxycholate] | 1 µg/mL (≈ 1.61 µM) | 4 µg/mL | 16 µg/mL (≈ 25.8 µM) | 90 µg/mL (≈ 145 µM) | 8 µg/mL (≈ 12.9 µM) | 6 µg/mL (≈ 9.66 µM) | 8 µg/mL (≈ 12.9 µM) | 4 µg/mL (≈ 6.44 µM) | 8 µg/mL (≈ 12.9 µM) | 14 µg/mL (≈ 22.5 µM) |
| COC(=O)CC[C@@H](C)[C@H]1CCC2C3C(CC[C@@]21C)[C@@]1(C)CC[C@H](NCCNCCNCCNCCNCCN)CC1C[C@H]3O (stereo partly drawn) [(22), methyl 3β-(pentaethylenehexamine)chenodeoxycholate] | 2 µg/mL (≈ 3.22 µM) | 4 µg/mL | 8 µg/mL (≈ 12.9 µM) | 60 µg/mL (≈ 96.6 µM) | 31 µg/mL (≈ 49.9 µM) | 4 µg/mL (≈ 6.44 µM) | 31 µg/mL (≈ 49.9 µM) | 16 µg/mL (≈ 25.8 µM) | 31 µg/mL (≈ 49.9 µM) | 8 µg/mL (≈ 12.9 µM) |
